The values that follow are results of earlier work, collected in patent US20020064550A1, “Edible candy compositions and methods of using same” (AkPharma, Inc., priority 2000, published 2002).

Like-named read-outs stand apart in the source and are kept apart here.

Data set [1] has as its system symptoms of bladder irritants. Particulars: 200 reported patients; calcium glycerophosphate taken with foods; 79.4% without calcium glycerophosphate.
In data set [2] the test system is dental caries. As to conditions: sugar-content diets of animals.
Data set [3] concerns dental caries. As to conditions: human children.

In the case of “1,2,3-propanetriol, mono(dihydrogen phosphate) calcium salt (1:1) [calcium glycerophosphate]”, in data set [1], the “over-all symptoms of bladder irritants” value was 14.6%. Moreover, the results for the dental caries reduction result in data set [2] and in data set [3] were “confirm dental caries reduction” and “fail to confirm same”, respectively.
